Measurements from patent publication US4861778A, “2,3-dihydrophthalazine-1,4-diones” (priority 1986, dated 1989).
Where two headings read alike, the source gives them in different places.

Experiments:
[1] = tested on: plasma lipoprotein fractions; assay: Determination of plasma lipoprotein fractions in rats (Example 13, Table IV); format: in vivo, Sprague-Dawley male rats; details: 10 mg/kg/d orally
From the text: Determination of Plasma Lipoprotein Fractions in Rats
Sets of six normal Sprague-Dawley male rats, each weighing approximately 350 grams, were orally treated with 10 milligrams per kilogram of body weight per day of 2,3-dihydrophthalazine-1,4-dione (Comp. No. 1) by intubation needle. In addition, a set of six Sprague-Dawley male rats of approximately the same weight were similarly treated except that the administered drug was the inert carrier, the 1 percent aqueous solution of CMC.
Blood was collected from all the rats participating in the test from the abdominal vein and lipoprotein fractions were obtained by the method of Hatch and Lees (Adv. Lipid Res., Vol. 6, 1 [1968]) and Havel et al. (J. Clin. Invest., Vol. 34, 1345 [1955]). Each of the fractions were analyzed for cholesterol in accordance with the Ness et al. test, for triglyceride level (Bio-Dynamic/bmc Triglyceride Kit), neutral lipids, in accordance with the test of Bragdon (J. Biol. Chem., Vol. 190, 513 [1951]), phospholipids, in accordance with the Stewart and Hendry procedure (Biochem. J., Vol. 29, 1683 [1935]) and protein levels, in accordance with the procedure of Lowry et al. (J. Biol. Chem., Vol. 193, 265 [1951]).

[2] = tested on: serum cholesterol and serum triglycerides; assay: Effect of Compound 1 on hyperlipidemic mice (Example 14); format: in vivo, CF1 male mice; details: diet-induced hyperlipidemic CF1 mice, 20 mg/kg daily, 12 days
Description: Effect of Compound 1 on Hyperlipidemic Mice
A group of CF1 male mice were fed a diet resulting in induced hyperlipidemia.
These hyperlipidemic mice were treated for 12 days with Compound 1 (2,3-dihydrophthalazine-1,4-dione) at a daily dosage of 20 mg/kg. At the conclusion of this treatment regime the average serum cholesterol level of the hyperlipidemic mice was lowered to 221 mg percent, a 41 percent reduction.

[3] = tested on: serum cholesterol and serum triglyceride; assay: Hypolipidemic effect of Compound No. 1 in normal Sprague-Dawley male rats (Example 12, Table III); format: in vivo; details: 10 mg/kg/day orally
Description: In addition, rats were treated with Compound No. 1. The rats used in the test were normal Sprague-Dawley male rats, each weighting approximately 350 grams. The rats, tested in groups of six, were orally administered 10 mg/kg/d of Compound 1 in an aqueous solution of 1 percent CMC. The treatment of 10 milligrams per kilogram of body weight per day continued for 14 days. On Days 7 and 14 blood was obtained from each of the rats by tail vein bleeding. The blood obtained was separated centrifugation for three minutes. Serum cholesterol and serum triglyceride blood levels were determined in accordance with the procedure of Example 1.
(§1) In Table III the results are reported as percent of serum cholesterol and serum triglyceride based on the concentration of these materials found in the control, the rats treated with the 1 percent aqueous solution of CMC.

[4] = tested on: serum cholesterol and serum triglyceride; assay: Hypolipidemic effect of Compound No. 1 in normal CF1 male mice, dose response (Example 12, Table III); format: in vivo
Description: The hypolipidemic effects of a preferred compound within the scope of the present invention, 2,3-dihydrophthalazine-1,4-dione (Compound No. 1), was tested in accordance with the procedure set forth in Example 11. However, in addition to testing normal CF1 male mice at 20 mg/kg/d ip, sets of six of these mice were treated with dosages of 10, 40 and 60 mg/kg/d. A set of six mice were again treated with a 1 percent aqueous solution of CMC, the carrier for the active agent, as a control.
as §1

[5] = tested on: serum cholesterol and serum triglyceride; assay: Hypolipidemic activity of 2,3-dihydrophthalazine-1,4-diones in normal male mice (Example 11, Table II); format: in vivo, CF1 male mice; details: Mus musculus, ip, CF1 male mice, 20 mg/kg/day intraperitoneally
Description: Hypolipidemic Activity of 2,3-Dihydrophthalazine-1,4-Diones in Normal Male Mice
Each of the prepared compounds was administered intraperitoneally, in a dosage of 20 milligrams per kilogram of body weight per day, to a group of six CF1 male mice, each weighing approximately 25 grams, for 16 days. On Days 9 and 16 blood was obtained from each of the tested mice by tail vein bleeding. The blood serum so obtained was separated by centrifugation for three minutes. […] Serum triglyceride levels were obtained on Day 16 by use of the Bio-Dynamics/bm Triglyceride Kit.
In addition to the above-described treated mice, an untreated control group of six mice were similarly tested on Days 9 and 16 to determine their serum cholesterol and serum triglyceride blood levels.

O=c1[nH][nH]c(=O)c2ccccc12 [Compound 1, 2,3-Dihydrophthalazine-1,4-Dione]
HDL cholesterol, percent control ± standard deviation ([1]; HDL, column 1): 107 ± 3 PERCENT CONTROL
HDL triglyceride, percent control ± standard deviation ([1]; HDL, column 2): 42 ± 4 PERCENT CONTROL
HDL neutral lipids, percent control ± standard deviation ([1]; HDL, column 3): 86 ± 3 PERCENT CONTROL
HDL phospholipids, percent control ± standard deviation ([1]; HDL, column 4): 42 ± 6 PERCENT CONTROL
HDL protein, percent control ± standard deviation ([1]; HDL, column 5): 93 ± 7 PERCENT CONTROL
LDL cholesterol, percent control ± standard deviation ([1]; LDL, column 1): 35 ± 6 PERCENT CONTROL
LDL triglyceride, percent control ± standard deviation ([1]; LDL, column 2): 94 ± 7 PERCENT CONTROL
LDL neutral lipids, percent control ± standard deviation ([1]; LDL, column 3): 88 ± 6 PERCENT CONTROL
LDL phospholipids, percent control ± standard deviation ([1]; LDL, column 4): 125 ± 7 PERCENT CONTROL
LDL protein, percent control ± standard deviation ([1]; LDL, column 5): 92 ± 8 PERCENT CONTROL
VLDL cholesterol, percent control ± standard deviation ([1]; VLDL, column 1): 30 ± 5 PERCENT CONTROL
VLDL triglyceride, percent control ± standard deviation ([1]; VLDL, column 2): 134 ± 10 PERCENT CONTROL
VLDL neutral lipids, percent control ± standard deviation ([1]; VLDL, column 3): 81 ± 3 PERCENT CONTROL
VLDL phospholipids, percent control ± standard deviation ([1]; VLDL, column 4): 91 ± 6 PERCENT CONTROL
VLDL protein, percent control ± standard deviation ([1]; VLDL, column 5): 103 ± 7 PERCENT CONTROL
Chylomicrons cholesterol, percent control ± standard deviation ([1]; chylomicrons, column 1): 82 ± 6 PERCENT CONTROL
Chylomicrons triglyceride, percent control ± standard deviation ([1]; chylomicrons, column 2): 85 ± 7 PERCENT CONTROL
Chylomicrons neutral lipids, percent control ± standard deviation ([1]; chylomicrons, column 3): 84 ± 8 PERCENT CONTROL
Chylomicrons phospholipids, percent control ± standard deviation ([1]; chylomicrons, column 4): 92 ± 7 PERCENT CONTROL
Chylomicrons protein, percent control ± standard deviation ([1]; chylomicrons, column 5): 102 ± 6 PERCENT CONTROL
reduction of serum cholesterol level [2]: 41%
reduction of serum triglycerides level [2]: 56%
average serum triglycerides level after treatment ([2]; initial 367 mg/dl): 161 mg/dL
average serum cholesterol level after treatment ([2]; initial 375 mg percent): 221 mg percent
Cholesterol Day 7, % control ± standard deviation ([3]; Day 7): 75 ± 5 % CONTROL
Triglyceride Day 7, % control ± standard deviation ([3]; Day 7): 66 ± 6 % CONTROL
Cholesterol Day 14, % control ± standard deviation ([3]; Day 14): 68 ± 8 % CONTROL
Triglyceride Day 14, % control ± standard deviation ([3]; Day 14): 64 ± 5 % CONTROL
Cholesterol Day 9, % control ± standard deviation ([4]; 10 mg/kg/day ip): 88 ± 5 % CONTROL
Cholesterol Day 16, % control ± standard deviation ([4]; 10 mg/kg/day ip): 76 ± 7 % CONTROL
Triglyceride Day 16, % control ± standard deviation ([4]; 10 mg/kg/day ip): 67 ± 5 % CONTROL
Cholesterol Day 9, % control ± standard deviation ([4]; 20 mg/kg/day ip): 53 ± 4 % CONTROL
Cholesterol Day 16, % control ± standard deviation ([4]; 20 mg/kg/day ip): 49 ± 8 % CONTROL
Triglyceride Day 16, % control ± standard deviation ([4]; 20 mg/kg/day ip): 57 ± 4 % CONTROL
Cholesterol Day 9, % control ± standard deviation ([4]; 40 mg/kg/day ip): 71 ± 7 % CONTROL
Cholesterol Day 16, % control ± standard deviation ([4]; 40 mg/kg/day ip): 60 ± 6 % CONTROL
Triglyceride Day 16, % control ± standard deviation ([4]; 40 mg/kg/day ip): 44 ± 3 % CONTROL
Cholesterol Day 9, % control ± standard deviation ([4]; 60 mg/kg/day ip): 76 ± 8 % CONTROL
Cholesterol Day 16, % control ± standard deviation ([4]; 60 mg/kg/day ip): 55 ± 5 % CONTROL
Triglyceride Day 16, % control ± standard deviation ([4]; 60 mg/kg/day ip): 49 ± 5 % CONTROL
response vs control in vivo at 20 mg/kg/day ([5]; 216 h, Day 9, read-out: Serum Cholesterol Day 9, percent control ± standard deviation): 53 ± 4%
response vs control in vivo at 20 mg/kg/day ([5]; 384 h, Day 16, read-out: Serum Cholesterol Day 16, percent control ± standard deviation): 49 ± 5%
response vs control in vivo at 20 mg/kg/day ([5]; 384 h, Day 16, read-out: Serum Triglyceride Day 16, percent control ± standard deviation): 57 ± 4%
